# Laboratory results reported in patent US12078642B2, “Methods for evaluating and improving cognitive function” (THE UNIVERSITY OF MELBOURNE, priority 2017, dated 2024).
# “And” between values parts separate entries of the source, which are not always exact repeats. Identical values can stand only once.
# System: old mice
# Assay: Barnes Maze cognitive function (memory) test
# Assay type: in vivo, mouse
# Details: for Time searching for the escape hatch in the target zone after CE 18:1 versus before (FIG. 11): old mice (24 months), same mice before and after CE 18:1 enriched diet, 470 mg per kg
# Method: The cognitive function of the mice was tested using a Barnes Maze. The Barnes maze makes use of a mouse's nature to avoid bright lights and open spaces. The Barnes maze was a white 150 cm disk with 36 evenly spaced holes. The disk is elevated 64 cm above the ground and four visual cues—two 3D cues and two 2D cues—are placed in four quadrants, denoting four possible escape holes. The escape box was placed under the assigned escape hole and fastened by tape. Four portable floodlights were used to evenly illuminate the maze and a light meter was used to ensure consistent brightness of 3400 to 3600 lux. Prior to the beginning of a trial, the maze and the escape box were cleaned with 80% ethanol to remove olfactory cues.
# The mouse was placed in the centre of the maze under a cover. The cover was then retracted using a pulley system and the mouse was allowed to explore the maze for four minutes to find and enter the escape hole. If the mouse entered the escape hole in less than four minutes, the time was recorded and the floodlights switched off. If the mouse had not entered the escape hole after four minutes, the mouse was gently guided to the escape hole and lights were switched off. The mouse was allowed to remain in the escape box for one minute before it was returned to its home box outside the experimental room. For the probe trial, the escape box was removed and the trial length was shortened to 3 minutes (180 seconds). The duration required, distance traveled, and latency to the assigned escape hole was recorded using topscan lite 2.0. The time the mouse spent in the “target zone” (the 5 holes consisting of the assigned escape hole and the two holes on either side) searching for the assigned escape hole was also recorded.
# Trials were conducted over seven days; day 1 contained a single habituation trial, days 2-6 contained 3 acquisition trials a day and day 7 contained a single probe trial. […]
# The CE 18:1 oral administration consisted of 20 mg CE 18:1 suspended in 0.5 g of raspberry flavoured agar jelly. To prepare the CE 18:1 enriched jelly, 4 g of agar powder and 0.1 g NaOH pellets was dissolved in 13 ml raspberry flavoured cordial, with MilliQ water added q.s. to form a total of 200 mL jelly solution. To the jelly solution, 400 mg of cholesteryl oleate was suspended in 40 ml of jelly to form the CE 18:1 oral administration.
# Seven old mice (24 months old) were subjected to the Barnes Maze as described above, and the time the mice spent investigating the “target zone” during the probe trial was investigated. The same seven old mice were then fed 0.5 g of the CE 18:1 enriched jelly once a day (20 mg CE 18:1, 4% w/w), which correlated to a CE 18:1 dosage rate of 470 mg per kg of bodyweight. The mice were the subjected to the Barnes Maze as described above, and the time the mice spent investigating the “target zone” during the probe trial was investigated.
# [1] = individual old mice (24 months), probe trial of 180 s, after 0.5 g CE 18:1 enriched jelly once a day orally (20 mg CE 18:1, 470 mg per kg bodyweight), one value per mouse
smiles,measurement,setting,value
"CCCCCCCC/C=C\CCCCCCCC(=O)O[C@H]1CC[C@@]2(C)C(=CC[C@H]3[C@@H]4CC[C@H]([C@H](C)CCCC(C)C)[C@@]4(C)CC[C@@H]32)C1 [CE 18:1, cholesteryl oleate]","Percentage of time spent at target zone out of 180 sec (%), After CE 18:1, AVERAGE","average of seven old mice (24 months), probe trial, after CE 18:1 jelly orally 470 mg per kg, before CE 18:1: 4.70%",9.5%
same,"Duration at target zone (s), After CE 18:1, AVERAGE","average of seven old mice (24 months), probe trial, after CE 18:1 jelly orally 470 mg per kg, before CE 18:1: 8.47 s",17.10 s
same,"Duration at target zone (s), After CE 18:1",[1],16.00 s and 16.48 s and 28.68 s and 4.84 s and 23.40 s and 21.28 s and 9.04 s
same,"Percentage of time spent at target zone out of 180 sec (%), After CE 18:1",[1],8.89% and 9.16% and 15.93% and 2.69% and 13.00% and 11.82% and 5.02%
same,Time searching for the escape hatch in the target zone after CE 18:1 versus before (FIG. 11),probe trial,statistical increase in time searching for the escape hatch in the target zone
same,Time searching for the escape hatch in the target zone after CE 18:1 versus before (FIG. 11),"probe trial, listed as cholesteryl oleate",improved cognitive function in mice
same,Time searching for the escape hatch in the target zone after CE 18:1 versus before (FIG. 11),"probe trial, listed as cholesteryl oleate (CE 18:1)",spent more time investigating the target zone
